34 compounds from ChEMBL document CHEMBL1133338, “Novel 3-(4-piperidinylthio)-1H-indoles as potent nonopioid orally active central analgesics” (Bioorg Med Chem Lett, 2000) can be followed below.

Test [1] relates to Mus musculus. The experiment in a line: In vivo analgesic activity in hot plate test in mice. Format: functional. Background: Hot-plate and tail-flick tests time the reaction to a heat stimulus.
For test [2], the system named is Mus musculus. The experiment in a line: In vivo analgesic activity in phenylbenzoquinone-induced writhing test in mice. Type of test: functional. A general note: An intraperitoneal irritant provokes the stretching counted in writhing tests.
For test [3], the system named is Mus musculus. The experiment in a line: Compound (at 30 mg/kg) was evaluated in vivo for the inhibition of phenylbenzoquinone induced painful reactions in mice. Type of test: functional.
Test [4] deals with Mus musculus. In words: Compound (at 30 mg/kg) was evaluated in vivo for the inhibition of painful reactions in mice in the hot plate test. Format: functional.
The species entered for test [5] is Mus musculus. In words: Effective dose in mice by tail pinch test.
Test [6] is filed under the species Rattus norvegicus. In words: Compound was tested for inhibition of Freund's adjuvant-induced polyarthritis in rats. Type of test: functional.
The species named for test [7] is Rattus norvegicus. In words: Compound was tested for inhibition of kaolin induced arthritis in rats.
Test [8] deals with Sodium-dependent serotonin transporter (Rattus norvegicus, UniProt P31652). The experiment in a line: Binding affinity on Serotonin transporter was determined in rat.
Sodium-dependent serotonin transporter, sequence (P31652 whole entry): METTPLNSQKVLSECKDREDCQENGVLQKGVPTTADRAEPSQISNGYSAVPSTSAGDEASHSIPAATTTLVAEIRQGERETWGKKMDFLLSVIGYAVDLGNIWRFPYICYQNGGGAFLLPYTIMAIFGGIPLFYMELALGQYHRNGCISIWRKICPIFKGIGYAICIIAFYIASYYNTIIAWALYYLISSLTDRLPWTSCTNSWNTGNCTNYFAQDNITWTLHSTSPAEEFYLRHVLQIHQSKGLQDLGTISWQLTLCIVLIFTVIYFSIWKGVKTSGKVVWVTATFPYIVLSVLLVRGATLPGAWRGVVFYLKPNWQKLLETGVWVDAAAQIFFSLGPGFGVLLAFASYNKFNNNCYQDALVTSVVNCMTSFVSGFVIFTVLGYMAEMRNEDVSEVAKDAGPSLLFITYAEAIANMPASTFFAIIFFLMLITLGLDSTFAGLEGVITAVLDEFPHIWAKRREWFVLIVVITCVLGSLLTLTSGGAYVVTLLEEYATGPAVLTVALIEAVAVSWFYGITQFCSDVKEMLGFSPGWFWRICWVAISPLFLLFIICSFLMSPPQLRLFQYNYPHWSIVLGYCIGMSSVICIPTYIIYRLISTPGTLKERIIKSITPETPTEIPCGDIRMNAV
Test [9] has as its system Mus musculus. The experiment in a line: Effective dose in mice after intraperitoneal administration by tail pinch test. Format: functional. The settings on record: ip.
Test [10] deals with Rattus norvegicus. In words: Compound (at 60 mg/kg perorally) was tested for inhibition of Freund's adjuvant-induced polyarthritis in rats. Format: functional. The settings on record: route oral.
In test [11] the test system is Rattus norvegicus. In words: Compound after peroral administration was tested for inhibition of kaolin-induced arthritis in rats. Type of test: functional. Particulars: po.

pKi: −log10 of the molar value.

For the compound `O=S(=O)(c1c[nH]c2ccc(Cl)cc12)C1CCNCC1`, the values for the ED50 in the test on Mus musculus [1] and with Mus musculus [2] were 8.4 mg/kg and 12.5 mg/kg, respectively. Turning to `Clc1ccc(-c2[nH]c3ccc(Cl)cc3c2SC2CCNCC2)cc1`, in the test with Mus musculus [3], the inhibition in vivo at 30 mg/kg is 26%. Turning to `CN1CCC([S+]([O-])c2c[nH]c3ccc(Cl)cc23)CC1` (stereo not given), 30 mg/kg produced 44% inhibition in vivo in the test on Mus musculus [3]. Regarding `CON1CCC(Sc2c[nH]c3ccc(Cl)cc23)CC1`, the ED50 came out at 2.3 mg/kg with Mus musculus [1] and 1.4 mg/kg in the test on Mus musculus [2]. `CN1CCC(Sc2c[nH]c3ccc(O)cc23)CC1` had an inhibition in vivo at 30 mg/kg with Mus musculus [3] of 9%. On to `Clc1ccc2[nH]cc(SC3CCN(CCc4ccccc4)CC3)c2c1`, for which the ED50 with Mus musculus [2] was 8.9 mg/kg. In addition, in the test on Mus musculus [4], 30 mg/kg produced 14% inhibition in vivo. As for `CN1CCC(S(=O)(=O)c2c[nH]c3ccc(Cl)cc23)CC1`, the ED50 in the test with Mus musculus [1] turned out to be 16 mg/kg; with Mus musculus [2] it was 5.4 mg/kg. In turn, `Cc1[nH]c2ccc(F)cc2c1SC1CCN(C)CC1` came in with a 50% effective dose (ED50) in the test on Mus musculus [2] of 35.6 mg/kg.

Regarding `CN1CC[C@]23c4c5ccc(O)c4O[C@H]2[C@@H](O)C=C[C@H]3[C@H]1C5` [MORPHINE], the median effective dose (ED50) is 15 mg/kg in the test filed under Mus musculus [5], 28.9 mg/kg with Mus musculus [1] and 4.4 mg/kg in the test filed under Rattus norvegicus [7]. Besides, the Dose in the test listed under Rattus norvegicus [6] stood at 5.2 mg/kg.

In the case of `CN1CCC(Sc2cn(C)c3ccc(Cl)cc23)CC1`, the 50% effective dose (ED50) was 9.3 mg/kg in the test with Mus musculus [1] and 3.9 mg/kg in the test on Mus musculus [2]. Compound `COc1ccc2[nH]cc(SC3CCN(C)CC3)c2c1` had a median effective dose (ED50) in the test with Mus musculus [2] of 24.9 mg/kg. `CC(C)N1CCC(Sc2c[nH]c3ccc(Cl)cc23)CC1`: in the test with Mus musculus [3], at 30 mg/kg the inhibition in vivo was 38%. Turning to `Clc1ccc2[nH]cc(SC3CCNCC3)c2c1`, the ED50 with Mus musculus [1] was determined as 1.2 mg/kg; with Mus musculus [2] it was 0.3 mg/kg. The compound `Clc1ccc2[nH]cc(SC3CCN(Cc4ccccc4)CC3)c2c1` had an ED50 with Mus musculus [2] of 9.7 mg/kg. Testing at 30 mg/kg with Mus musculus [4] gave an inhibition in vivo of 32%.

Turning to `Cc1ccc2[nH]cc(SC3CCN(C)CC3)c2c1`, in the test with Mus musculus [3], the inhibition in vivo at 30 mg/kg came out at 25%. As to `CON1CCC(Sc2c[nH]c3ccc(Br)cc23)CC1`, the values for the median effective dose (ED50) in the test on Mus musculus [1] and in the test on Mus musculus [2] were 3.2 mg/kg and 1.6 mg/kg, respectively. Regarding `CCOC(=O)N1CCC(Sc2c[nH]c3ccc(Br)cc23)CC1`, the ED50 in the test with Mus musculus [1] was found to be 27.3 mg/kg; in the test on Mus musculus [2] it was 6.3 mg/kg.

For the compound `CCCC(=O)N1CCC(Sc2c[nH]c3ccc(Cl)cc23)CC1`, the ED50 in the test on Mus musculus [1] is 22.7 mg/kg; in the test on Mus musculus [2], 8.9 mg/kg. For `CC(=O)N1CCC(Sc2c[nH]c3ccc(Cl)cc23)CC1`, the 50% effective dose (ED50) with Mus musculus [1] was 3.8 mg/kg; in the test with Mus musculus [2], 2.9 mg/kg. Take `CC(=O)N1CCC(Sc2c[nH]c3ccc(Br)cc23)CC1`: the ED50 in the test with Mus musculus [1] stood at 2.8 mg/kg; with Mus musculus [2], 2.9 mg/kg. The matching figures for `Cc1[nH]c2ccc(Br)cc2c1SC1CCNCC1`: 3.1 mg/kg and 0.7 mg/kg. In the case of `O=CN1CCC(Sc2c[nH]c3ccc(Br)cc23)CC1`, 30 mg/kg produced 31% inhibition in vivo with Mus musculus [3]. Consider `Cc1[nH]c2ccc(C(F)(F)F)cc2c1SC1CCNCC1`, for which the 50% effective dose (ED50) in the test on Mus musculus [2] is 19.4 mg/kg. This compound yielded an inhibition in vivo at 30 mg/kg in the test on Mus musculus [4] of 41%. On to `CN1CCC(Sc2cn(C)c3ccc(Br)cc23)CC1`, for which the figures for the median effective dose (ED50) in the test with Mus musculus [1] and with Mus musculus [2] were 8.6 mg/kg and 5.4 mg/kg, respectively. As for `CN1CCC(Sc2c[nH]c3ccc(Cl)cc23)CC1`, the ED50 with Mus musculus [1] worked out at 16.9 mg/kg; in the test on Mus musculus [9] it was 25.3 mg/kg; with Mus musculus [2], 4 mg/kg; in the test with Rattus norvegicus [11], 4.9 mg/kg. Moreover, the pKi in test [8] was 8.52. Moreover, the inhibition in vivo at 60 mg/kg in the test with Rattus norvegicus [10] turned out to be 62%. As for `Cc1[nH]c2ccc(F)cc2c1SC1CCNCC1`, the ED50 with Mus musculus [1] was determined as 12.7 mg/kg; with Mus musculus [2], 5.9 mg/kg. With `CN1CCC(Sc2c[nH]c3ccccc23)CC1`, testing at 30 mg/kg with Mus musculus [3] gave an inhibition in vivo of 26%. As to `Cc1c(SC2CCNCC2)c2cc(Cl)ccc2n1Cc1ccc(Cl)cc1`, the inhibition in vivo at 30 mg/kg in the test on Mus musculus [3] was 27%.

In the test on Mus musculus [3], `CON1CCC(Sc2cn(C)c3ccc(C(=O)O)cc23)CC1` gave an inhibition in vivo at 30 mg/kg of 25%. Consider `CN1CCC(Sc2c[nH]c3ccc(I)cc23)CC1`, for which, in the test on Mus musculus [2], it took a dose of 54.2 mg/kg to reach the 50% effect level (ED50).

In turn, `CC(C)c1ccc2[nH]cc(SC3CCN(C)CC3)c2c1` registered an inhibition in vivo at 30 mg/kg with Mus musculus [3] of 48%. In the test with Mus musculus [3], `CCCCn1cc(SC2CCN(C)CC2)c2cc(Br)ccc21` gave an inhibition in vivo at 30 mg/kg of 21%. In the test on Mus musculus [3], `CCN1CCC(Sc2c[nH]c3ccc(Cl)cc23)CC1` returned an inhibition in vivo at 30 mg/kg of 42%. The compound further came in with an ED50 in the test on Mus musculus [1] of 33.3 mg/kg. `Cc1[nH]c2ccc(Cl)cc2c1SC1CCNCC1`: the 50% effective dose (ED50) was 9.9 mg/kg in the test on Mus musculus [1] and 0.8 mg/kg in the test with Mus musculus [2].

A word on the ED50: it is the dose that gives a 50% effect, or the effect in half of the subjects. As a reminder, the inhibition in vivo is the relative decrease from the control value, in per cent. Usually pKi stands for the negative decadic logarithm of the Ki, by convention in mol/L. A high value points to a small Ki.
